Results on 30 compounds are retold here after ChEMBL document CHEMBL1155239, “Structure-guided development of selective TbcatB inhibitors” (J Med Chem, 2009).

One assay has as its target Procathepsin L (Homo sapiens, UniProt P07711). In words: Inhibition of human liver cathepsin L.
Assay [1] is described as follows: Inhibition of Trypanosoma brucei cathepsin B expressed in Pichia pastoris.
The test system of the next assay is BJ. Briefly: Cytotoxicity against human BJ cells after 72 hrs by alamar blue assay. The format is ADME, cell-based.
A further assay concerns Raji. Briefly: Cytotoxicity against human Raji cells after 72 hrs by alamar blue assay. The format is ADME, cell-based.
A further assay relates to HepG2. In words: Cytotoxicity against human HepG2 cells after 72 hrs by alamar blue assay. Format: ADME, cell-based. The conditions noted are these: HepG2, 72 h.
The target of another assay is Cathepsin B (Homo sapiens, UniProt P07858). Briefly: Inhibition of human liver cathepsin B.
A further assay has as its system HEK293. Briefly: Cytotoxicity against human HEK293 cells after 72 hrs by alamar blue assay. The format is ADME, cell-based. The note with it: HEK293, 72 h. (The colour change of resazurin is a common sign of viable cells or microbes.)
In another assay the target is Rhodesain (Trypanosoma brucei rhodesiense, UniProt Q95PM0). Briefly: Inhibition of Trypanosoma brucei rhodesiense rhodesain.
The subject of a further assay is Trypanosoma brucei. In words: Antitrypanosomal activity against Trypanosoma brucei after 48 hrs. The format is functional, organism-based.

Sequence of Procathepsin L (P07711 whole entry): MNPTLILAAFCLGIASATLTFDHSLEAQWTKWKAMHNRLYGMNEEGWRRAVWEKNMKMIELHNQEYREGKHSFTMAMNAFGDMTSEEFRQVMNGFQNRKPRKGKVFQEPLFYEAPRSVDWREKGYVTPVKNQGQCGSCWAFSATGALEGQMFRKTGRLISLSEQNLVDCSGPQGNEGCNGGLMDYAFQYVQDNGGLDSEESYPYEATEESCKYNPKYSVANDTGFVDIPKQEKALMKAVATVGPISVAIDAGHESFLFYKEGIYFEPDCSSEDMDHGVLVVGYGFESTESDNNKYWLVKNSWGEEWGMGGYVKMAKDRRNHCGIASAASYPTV
Sequence of Rhodesain (Q95PM0 whole entry): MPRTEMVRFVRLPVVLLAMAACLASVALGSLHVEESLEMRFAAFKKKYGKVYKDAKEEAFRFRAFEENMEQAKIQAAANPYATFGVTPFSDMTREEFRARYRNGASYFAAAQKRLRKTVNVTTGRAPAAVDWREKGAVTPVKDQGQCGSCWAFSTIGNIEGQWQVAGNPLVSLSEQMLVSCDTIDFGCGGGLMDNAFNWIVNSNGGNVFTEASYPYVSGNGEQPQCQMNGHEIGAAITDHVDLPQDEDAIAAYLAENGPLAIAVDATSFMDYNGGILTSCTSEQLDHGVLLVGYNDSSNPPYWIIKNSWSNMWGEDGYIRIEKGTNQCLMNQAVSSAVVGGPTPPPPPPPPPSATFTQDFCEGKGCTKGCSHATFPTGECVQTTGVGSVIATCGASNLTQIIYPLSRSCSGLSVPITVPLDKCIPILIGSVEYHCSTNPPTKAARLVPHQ

One may read the IC50 as the concentration needed to halve the response being measured. The term EC50 denotes the concentration at which the effect is half-maximal. Low values mean a more potent agent, high ones a less potent agent. As to `CC(C)Oc1c(Br)cccc1-c1cccc(CNc2nc(C#N)nc3c2ncn3CCCO)c1`, the IC50 against Procathepsin L is 1300 nM; in assay [1] it was 900 nM; against Cathepsin B, greater than 50000 nM; against Rhodesain, 1500 nM. For the same compound, the EC50 with BJ, in the assay with Raji, with HepG2 and in the assay on HEK293 was greater than 10000 nM throughout.
As to `N#Cc1nc(NCc2cccc(-c3ccc4cc[nH]c4c3)c2)c2ncn(CCCO)c2n1`, the figures for the half-maximal inhibitory concentration (IC50) (at Procathepsin L; in assay [1]; at Rhodesain) were 460 nM, 240 nM and 260 nM, respectively. Besides, the EC50 was greater than 10000 nM in the assay on BJ; greater than 10000 nM in the assay with Raji; 800 nM in the assay with Trypanosoma brucei; greater than 10000 nM in the assay on HepG2; greater than 10000 nM in the assay with HEK293.
For the compound `N#Cc1nc(NCc2cccc(-c3ccsc3)c2)c2ncn(CCCO)c2n1`, the IC50 is 480 nM against Procathepsin L, 370 nM in assay [1] and 240 nM at Rhodesain. In addition, the EC50 in the assay on BJ was greater than 10000 nM; with Raji it was greater than 10000 nM; in the assay with Trypanosoma brucei, 430 nM; with HepG2 it was greater than 10000 nM; in the assay on HEK293 it was greater than 10000 nM.
For `N#Cc1nc(NCc2cccc(-c3ccoc3)c2)c2ncn(CCCO)c2n1`, the IC50 on Procathepsin L was 600 nM; in [1] it was 460 nM; on Rhodesain it was 30 nM. The EC50 is greater than 10000 nM with BJ; greater than 10000 nM in the assay on Raji; 560 nM in the assay with Trypanosoma brucei; greater than 10000 nM in the assay with HepG2; greater than 10000 nM with HEK293.
In the case of `N#Cc1nc(NCc2cccc(-c3ccc(Cl)cc3)c2)c2ncn(CCCO)c2n1`, the concentration for half-maximal inhibition (IC50) against Procathepsin L amounted to 1900 nM; against Rhodesain it was 1400 nM.
On to `C=Cc1cccc(-c2cccc(CNc3nc(C#N)nc4c3ncn4CCCO)c2)c1`, for which the midpoint of inhibition in assay [1], the IC50, lay at 800 nM. In addition, the concentration for a half-maximal effect (EC50) in the assay with BJ, with Raji, with HepG2 and in the assay on HEK293 was greater than 10000 nM throughout.
Regarding `N#Cc1nc(NCc2cccc(-c3cn(S(=O)(=O)c4ccccc4)c4ccccc34)c2)c2ncn(CCCO)c2n1`, the 50% inhibitory concentration (IC50) at Procathepsin L is 1000 nM; in assay [1] it was greater than 15000 nM; against Cathepsin B it was greater than 50000 nM; on Rhodesain it was 2000 nM. Also, the EC50 in the assay on BJ is greater than 10000 nM; with Raji it was greater than 10000 nM; in the assay with Trypanosoma brucei, 2000 nM; in the assay on HepG2 it was greater than 10000 nM; in the assay on HEK293, greater than 10000 nM.
As for `N#Cc1nc(NCc2cccc(-c3ccccc3Cl)c2)c2ncn(CCCO)c2n1`, the 50% inhibitory concentration (IC50) came to 16000 nM against Procathepsin L, 1300 nM in [1] and 20000 nM on Rhodesain.
As to `N#Cc1nc(NCc2cccc(-c3cccnc3)c2)c2ncn(CCCO)c2n1`, the IC50 against Procathepsin L was determined as 1600 nM; in assay [1], 600 nM; at Rhodesain, 260 nM. Further, the EC50 with BJ was greater than 10000 nM; with Raji it was greater than 10000 nM; in the assay on Trypanosoma brucei, 1400 nM; in the assay on HepG2, greater than 10000 nM; with HEK293, greater than 10000 nM.
As for `CC(C)c1ccccc1-c1cccc(CNc2nc(C#N)nc3c2ncn3CCCO)c1`, the half-inhibitory concentration (IC50) against Procathepsin L amounted to 900 nM; in assay [1], 310 nM. Besides, in the assay with Trypanosoma brucei, the concentration giving a half-maximal response (EC50) was found to be 630 nM.
With `N#Cc1nc(NCc2cccc(-c3ccco3)c2)c2ncn(CCCO)c2n1`, the IC50 on Procathepsin L is 840 nM; in assay [1], 1000 nM; at Rhodesain it was 310 nM. The EC50 in the assay on BJ was greater than 10000 nM; in the assay with Raji it was greater than 10000 nM; with Trypanosoma brucei it was 1600 nM; in the assay with HepG2 it was greater than 10000 nM; in the assay with HEK293, greater than 10000 nM.
`CN(C)c1cccc(-c2cccc(CNc3nc(C#N)nc4c3ncn4CCCO)c2)c1`: the concentration for half-maximal inhibition (IC50) was 1400 nM at Procathepsin L, 1200 nM in [1] and 900 nM against Rhodesain. Moreover, the EC50 in the assay on BJ, in the assay on Raji, in the assay on HepG2 and in the assay on HEK293 was greater than 10000 nM throughout.
On to `N#Cc1nc(NCc2cccc(-c3ccccc3C(F)(F)F)c2)c2ncn(CCCO)c2n1`, for which the results for the IC50 (against Procathepsin L; in assay [1]; against Rhodesain) were 1500 nM, 280 nM and 8000 nM, respectively. Moreover, the concentration for a half-maximal effect (EC50) in the assay with BJ, with Raji, in the assay on HepG2 and in the assay with HEK293 was greater than 10000 nM throughout.
For the compound `COc1ccc(-c2cccc(CNc3nc(C#N)nc4c3ncn4CCCO)c2)cc1`, the IC50 amounted to 1100 nM on Procathepsin L, 1200 nM in [1] and 800 nM on Rhodesain. The 50% effective concentration (EC50) with BJ, with Raji, with HepG2 and in the assay with HEK293 was greater than 10000 nM throughout.
For `N#Cc1nc(NCc2cccc(-c3cc4ccccc4n3S(=O)(=O)c3ccccc3)c2)c2ncn(CCCO)c2n1`, the IC50 against Procathepsin L was 1800 nM; in assay [1], greater than 15000 nM; on Cathepsin B, greater than 50000 nM; against Rhodesain, 9000 nM. In addition, the EC50 with BJ, in the assay on Raji, with HepG2 and with HEK293 was greater than 10000 nM throughout.
For `N#Cc1nc(NCc2cccc(-c3cccs3)c2)c2ncn(CCCO)c2n1`, the IC50 at Procathepsin L was determined as 900 nM; in [1] it was 600 nM; on Rhodesain it was 800 nM. For the same compound, the EC50 in the assay with BJ, in the assay with Raji, with HepG2 and in the assay on HEK293 was greater than 10000 nM in each case.
Turning to `COC(=O)c1ccccc1-c1cccc(CNc2nc(C#N)nc3c2ncn3CCCO)c1`, the half-maximal inhibitory concentration (IC50) at Procathepsin L was 1400 nM; in assay [1], 1000 nM; on Cathepsin B, greater than 15000 nM; against Rhodesain, greater than 10000 nM. Also, in the assay on Trypanosoma brucei, the EC50 stood at 700 nM.
`N#Cc1nc(NCc2cccc(-c3c(F)c(F)c(F)c(F)c3F)c2)c2ncn(CCCO)c2n1`: the IC50 at Procathepsin L came to 2700 nM; in [1], 900 nM; against Rhodesain, 5200 nM. Further, the EC50 in the assay with BJ, in the assay with Raji, with HepG2 and in the assay with HEK293 was greater than 10000 nM throughout.
Regarding `N#Cc1nc(NCc2cccc(-c3cc(Cl)cc(Cl)c3)c2)c2ncn(CCCO)c2n1`, the concentration for half-maximal inhibition (IC50) on Procathepsin L amounted to 900 nM; in assay [1], 1200 nM; at Rhodesain, 1100 nM. Moreover, the EC50 was greater than 10000 nM in the assay with BJ; greater than 10000 nM in the assay on Raji; 3300 nM in the assay on Trypanosoma brucei; greater than 10000 nM in the assay on HepG2; greater than 10000 nM in the assay with HEK293.
Regarding `N#Cc1nc(NCc2cccc(-c3ccc4ccccc4c3)c2)c2ncn(CCCO)c2n1`, the IC50 was 800 nM on Procathepsin L, 230 nM in assay [1] and 700 nM on Rhodesain. The EC50 with BJ is greater than 10000 nM; with Raji, greater than 10000 nM; in the assay with Trypanosoma brucei, 1100 nM; in the assay on HepG2, greater than 10000 nM; in the assay with HEK293, greater than 10000 nM.
For the compound `N#Cc1nc(NCc2cccc(-c3ccccc3)c2)c2ncn(CCCO)c2n1`, the half-inhibitory concentration (IC50) against Procathepsin L is 800 nM; in assay [1], 1800 nM; on Rhodesain, 700 nM. Further, the EC50 was greater than 10000 nM in the assay with BJ; greater than 10000 nM in the assay on Raji; 1400 nM in the assay with Trypanosoma brucei; greater than 10000 nM in the assay with HepG2; greater than 10000 nM in the assay on HEK293.
Consider `N#Cc1nc(NCc2cccc(-c3ccc4[nH]ccc4c3)c2)c2ncn(CCCO)c2n1`, for which the IC50 against Procathepsin L worked out at 190 nM; in assay [1], 250 nM; against Rhodesain it was 500 nM. For the same compound, the EC50 in the assay on BJ is greater than 10000 nM; with Raji it was greater than 10000 nM; in the assay on Trypanosoma brucei, 380 nM; with HepG2 it was greater than 10000 nM; in the assay with HEK293 it was greater than 10000 nM.
In the case of `COC(=O)c1cccc(-c2cccc(CNc3nc(C#N)nc4c3ncn4CCCO)c2)c1`, the EC50 in the assay on BJ was greater than 10000 nM; in the assay with Raji, greater than 10000 nM; in the assay with Trypanosoma brucei, 2700 nM; with HepG2, greater than 10000 nM; with HEK293, greater than 10000 nM. The same compound had an IC50 against Rhodesain of 500 nM.
As for `CC(=O)Nc1cccc(-c2cccc(CNc3nc(C#N)nc4c3ncn4CCCO)c2)c1`, the 50% inhibitory concentration (IC50) in [1] came to 1600 nM. Also, the concentration giving a half-maximal response (EC50) with BJ is greater than 10000 nM; in the assay with Raji it was greater than 10000 nM; with Trypanosoma brucei it was 4100 nM; in the assay on HepG2, greater than 10000 nM; with HEK293, greater than 10000 nM.
Regarding `N#Cc1nc(NCc2cccc(-c3cccc(Cl)c3)c2)c2ncn(CCCO)c2n1`, the IC50 against Procathepsin L is 700 nM; in assay [1], 800 nM; against Rhodesain, 1200 nM. In addition, the EC50 with BJ was greater than 10000 nM; in the assay on Raji, greater than 10000 nM; with Trypanosoma brucei, 3700 nM; in the assay on HepG2, greater than 10000 nM; in the assay with HEK293, greater than 10000 nM.
Consider `Cc1ccccc1-c1cccc(CNc2nc(C#N)nc3c2ncn3CCCO)c1`, for which the half-inhibitory concentration (IC50) against Procathepsin L was 1100 nM; in assay [1], 390 nM; at Rhodesain, greater than 50000 nM.
The matching figures for `Cc1cccc(C)c1-c1cccc(CNc2nc(C#N)nc3c2ncn3CCCO)c1`: 1000 nM, 270 nM and greater than 15000 nM.
For `C=Cc1ccc(-c2cccc(CNc3nc(C#N)nc4c3ncn4CCCO)c2)cc1`, the half-inhibitory concentration (IC50) stood at 1100 nM on Procathepsin L, 900 nM in assay [1] and 1800 nM against Rhodesain. Besides, the EC50 in the assay with BJ, in the assay on Raji, in the assay with HepG2 and in the assay on HEK293 was greater than 10000 nM throughout.
As to `COC(=O)c1ccc(-c2cccc(CNc3nc(C#N)nc4c3ncn4CCCO)c2)cc1`, the IC50 on Procathepsin L was determined as 1800 nM; in [1], 1600 nM; against Rhodesain it was 1200 nM. Besides, the concentration giving a half-maximal response (EC50) with BJ is greater than 10000 nM; in the assay on Raji, greater than 10000 nM; in the assay with Trypanosoma brucei, 4000 nM; with HepG2, greater than 10000 nM; in the assay with HEK293, greater than 10000 nM.
Take `N#Cc1nc(NCc2cccc(-c3ccc(Cl)c(Cl)c3)c2)c2ncn(CCCO)c2n1`: the IC50 against Procathepsin L was 1600 nM; in assay [1], 1200 nM; against Rhodesain it was 900 nM. For the same compound, the EC50 in the assay with BJ was greater than 10000 nM; in the assay on Raji, greater than 10000 nM; in the assay on Trypanosoma brucei it was 2300 nM; in the assay with HepG2, greater than 10000 nM; in the assay with HEK293, greater than 10000 nM.
